The values below come from ChEMBL document CHEMBL3259547, “Selective 5-HT Receptor Modulators May Deliver Focused Targeting with Fewer Adverse Effects” (ACS Med Chem Lett, 2014).

5-hydroxytryptamine receptor 7 (Rattus norvegicus), sequence (P32305 whole entry): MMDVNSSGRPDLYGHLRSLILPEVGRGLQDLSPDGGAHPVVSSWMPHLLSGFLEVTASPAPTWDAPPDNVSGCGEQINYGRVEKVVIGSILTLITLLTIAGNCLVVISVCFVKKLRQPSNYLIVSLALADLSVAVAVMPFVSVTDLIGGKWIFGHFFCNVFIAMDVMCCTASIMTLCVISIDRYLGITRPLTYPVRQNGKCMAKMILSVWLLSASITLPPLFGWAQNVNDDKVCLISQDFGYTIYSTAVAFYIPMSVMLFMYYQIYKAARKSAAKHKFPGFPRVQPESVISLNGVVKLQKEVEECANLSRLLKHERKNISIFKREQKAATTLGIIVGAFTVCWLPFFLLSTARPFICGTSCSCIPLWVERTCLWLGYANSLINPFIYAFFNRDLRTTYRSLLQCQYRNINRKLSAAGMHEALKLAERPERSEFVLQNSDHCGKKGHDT

This assay concerns the target 5-hydroxytryptamine receptor 7 (Rattus norvegicus) (UniProt P32305). Put plainly: Modulation of rat 5HT7 receptor by cAMP assay. The class given is functional.
Compound `Clc1cccc(COc2ccc(Br)cc2OC2CNC2)c1` showed a negative logarithm of the Kb (pKb) of 7.5. In the case of `C[C@@H](Oc1ccc(C(F)(F)F)cc1OC1CNC1)c1cccc(C(F)(F)F)c1` it was 6.8; in that of `Cc1nc(COc2ccc(Cl)cc2OC2CNC2)cs1`, 6.9; in that of `FC(F)(COc1ccc(Cl)cc1OC1CNC1)c1ccccc1`, 7.3.
